Measurements reported in patent US9113629B2, “4-amino-6-(4-substituted-phenyl)-picolinates and 6-amino-2-(4-substituted-phenyl)-pyrimidine-4-carboxylates and their use as herbicides” (DOW AGROSCIENCES LLC, priority 2013, dated 2015).
Read-outs that look alike come from different tables or passages of the source.

Experiments:
[1] = system: Key Grass and Sedge Weeds as well as Grass Crops; experiment: Post-emergent Test II herbicidal activity (Table 6); assay type: in vivo; conditions: post-emergence, 336 h; for pest or weed control at 140 g/ha: application rate 140 g ai/ha; for pest or weed control at 70 g/ha: application rate 70 g ai/ha
Method in brief: (§1)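 Foliar application at 187 L/ha to greenhouse-grown seedlings (first or second true leaf); subirrigation thereafter. Visual 0–100% injury at 14 d relative to untreated plants.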

[2] = system: Key Broadleaf Weed and Crop Species; experiment: Post-emergent Test II herbicidal activity (Table 5); assay type: in vivo; conditions: post-emergence, 336 h, post-emergent, 14 days after application; for pest or weed control at 140 g/ha: 140 g ai/ha; for pest or weed control at 70 g/ha: 70 g ai/ha
Method in brief: as §1

[3] = Triticum aestivum, TRZSS (wheat), read-out: Visual Growth Reduction (%) 14 Days After Application, TRZSS
[4] = CYPES: yellow nutsedge (Cyperus esculentus), read-out: Visual Growth Reduction (%) 14 Days After Application, CYPES
[5] = DIGSA: crabgrass (Digitaria sanguinalis), read-out: Visual Growth Reduction (%) 14 Days After Application, DIGSA
[6] = ECHCG: barnyardgrass (Echinochloa crus-galli), read-out: Visual Growth Reduction (%) 14 Days After Application, ECHCG
[7] = ORYSA: rice (Oryza sativa), read-out: Visual Growth Reduction (%) 14 Days After Application, ORYSA
[8] = SETFA: giant foxtail (Setaria faberi), read-out: Visual Growth Reduction (%) 14 Days After Application, SETFA
[9] = SORVU: grain sorghum (Sorghum vulgare), read-out: Visual Growth Reduction (%) 14 Days After Application, SORVU
[10] = ZEAMX: maize, corn (Zea mays), read-out: Visual Growth Reduction (%) 14 Days After Application, ZEAMX
[11] = ABUTH: velvetleaf (Abutilon theophrasti), read-out: Visual Growth Reduction (%) 14 Days After Application ABUTH
[12] = AMARE: redroot pigweed (Amaranthus retroflexus), read-out: Visual Growth Reduction (%) 14 Days After Application AMARE
[13] = BRSNN: oilseed-rape, canola (Brassica napus), read-out: Visual Growth Reduction (%) 14 Days After Application BRSNN
[14] = CHEAL: lambsquarters (Chenopodium album), read-out: Visual Growth Reduction (%) 14 Days After Application CHEAL
[15] = EPHHL: wild poinsettia (Euphorbia heterophylla), read-out: Visual Growth Reduction (%) 14 Days After Application EPHHL
[16] = HELAN: sunflower (Helianthus annuus), read-out: Visual Growth Reduction (%) 14 Days After Application HELAN
[17] = VIOTR: wild pansy (Viola tricolor), read-out: Visual Growth Reduction (%) 14 Days After Application VIOTR
[18] = TRZSS (wheat, Triticum aestivum), read-out: Visual Growth Reduction (%) 14 Days After Application, TRZSS

| melting point [°C] | SMILES | pest or weed control at 140 g/ha [1, 3] [%] | pest or weed control at 140 g/ha [1, 4] [%] | pest or weed control at 140 g/ha [1, 5] [%] | pest or weed control at 140 g/ha [1, 6] [%] | pest or weed control at 140 g/ha [1, 7] [%] | pest or weed control at 140 g/ha [1, 8] [%] | pest or weed control at 140 g/ha [1, 9] [%] | pest or weed control at 140 g/ha [1, 10] [%] | pest or weed control at 140 g/ha [2, 11] [%] | pest or weed control at 140 g/ha [2, 12] [%] | pest or weed control at 140 g/ha [2, 13] [%] | pest or weed control at 140 g/ha [2, 14] [%] | pest or weed control at 140 g/ha [2, 15] [%] | pest or weed control at 140 g/ha [2, 16] [%] | pest or weed control at 140 g/ha [2, 17] [%] | further results |
| --- | --- | --- | --- | --- | --- | --- | --- | --- | --- | --- | --- | --- | --- | --- | --- | --- | --- |
| 160.9 to 162.6 | C#Cc1ccc(-c2nc(C(=O)O)c(Cl)c(N)c2Cl)cc1 [Compound 153] | 60 to 74 | 45 to 59 | 45 to 59 | 0 to 29 | 0 to 29 | 75 to 84 | 0 to 29 | 60 to 74 | 95 to 100 | 95 to 100 | 95 to 100 | 95 to 100 | 0 to 29 | 95 to 100 | 0 to 29 |  |
| 178 to 179.7 | N#Cc1ccc(-c2nc(C(=O)O)c(Cl)c(N)c2Cl)cc1 [Compound 14] | 0 to 29 | 0 to 29 | 0 to 29 | 0 to 29 | 0 to 29 | 0 to 29 | 0 to 29 | 0 to 29 | 0 to 29 | 0 to 29 | 0 to 29 | 95 to 100 | 0 to 29 | 95 to 100 | 0 to 29 |  |
| 170.4 to 172.1 | Nc1cc(-c2ccc(OC(F)F)cc2)nc(C(=O)O)c1Cl [Compound 10] | 60 to 74 | 0 to 29 | 75 to 84 | 85 to 94 | 0 to 29 | 95 to 100 | 75 to 84 | 60 to 74 | 95 to 100 | 95 to 100 | 60 to 74 | 75 to 84 | 95 to 100 | 85 to 94 | 0 to 29 |  |
| 128 to 130 | COC(=O)c1nc(-c2ccc(Br)cc2)c(C)c(N)c1Cl [Compound 81, methyl 4-amino-6-(4-bromophenyl)-3-chloro-5-methylpicolinate] | 45 to 59 | 0 to 29 | 45 to 59 | 0 to 29 | 0 to 29 | 60 to 74 | 75 to 84 | 75 to 84 | 95 to 100 | 95 to 100 | 60 to 74 | 95 to 100 | 75 to 84 | 95 to 100 | 0 to 29 |  |
| 178.9 to 180.2 | COC(=O)c1nc(-c2ccc(OC(F)(F)F)cc2)c(Cl)c(N)c1Cl [Compound 170] | 0 to 29 | 0 to 29 | 0 to 29 | 0 to 29 | 0 to 29 | 0 to 29 | 0 to 29 | 0 to 29 | 0 to 29 | 0 to 29 | 0 to 29 | 60 to 74 | 0 to 29 | 85 to 94 | 0 to 29 |  |
| 130 to 132 | C#Cc1ccc(-c2nc(C(=O)OC)c(Cl)c(N)c2C)cc1F [Compound 151, methyl 4-amino-3-chloro-6-(4-ethynyl-3-fluorophenyl)-5-methylpicolinate] |  | 75 to 84 | 0 to 29 | 45 to 59 | 0 to 29 | 60 to 74 | 60 to 74 | 75 to 84 | 95 to 100 |  | 85 to 94 | 95 to 100 | 0 to 29 | 85 to 94 | 0 to 29 | pest or weed control at 70 g/ha [1, 4]: 0 to 29%; pest or weed control at 70 g/ha [1, 5]: 0 to 29%; pest or weed control at 70 g/ha [1, 6]: 0 to 29%; pest or weed control at 70 g/ha [1, 7]: 0 to 29%; pest or weed control at 70 g/ha [1, 8]: 0 to 29%; pest or weed control at 70 g/ha [1, 9]: 60 to 74%; pest or weed control at 70 g/ha [1, 18]: 0 to 29%; pest or weed control at 140 g/ha [1, 18]: 0 to 29%; pest or weed control at 70 g/ha [1, 10]: 60 to 74%; pest or weed control at 70 g/ha [2, 11]: 95 to 100%; pest or weed control at 70 g/ha [2, 13]: 75 to 84%; pest or weed control at 70 g/ha [2, 14]: 95 to 100%; pest or weed control at 70 g/ha [2, 15]: 0 to 29%; pest or weed control at 70 g/ha [2, 16]: 85 to 94%; pest or weed control at 70 g/ha [2, 17]: 0 to 29% |
| 204.2 to 205.9 | C#Cc1ccc(-c2cc(N)c(Cl)c(C(=O)O)n2)cc1 [Compound 48] | 30 to 44 | 0 to 29 | 60 to 74 | 75 to 84 | 0 to 29 | 0 to 29 | 0 to 29 | 0 to 29 | 95 to 100 | 95 to 100 | 85 to 94 | 85 to 94 | 95 to 100 | 95 to 100 | 0 to 29 |  |
| 146.3 to 147.6 | Nc1c(Cl)c(C(=O)O)nc(-c2ccc(OC(F)F)cc2)c1Cl [Compound 33] | 0 to 29 | 0 to 29 | 0 to 29 | 0 to 29 | 0 to 29 | 0 to 29 | 0 to 29 | 0 to 29 | 60 to 74 | 0 to 29 | 30 to 44 | 0 to 29 | 0 to 29 | 95 to 100 | 0 to 29 |  |
